Experimental data: article PMC12026874, “Microstructure of Sea Cucumber Parastichopus tremulus Peptide Hydrogels and Bioactivity in Caco-2 Cell Culture Model” (Gels, 2025)
Entries after “also recorded” stand apart in the source; their conditions may differ. Where no end group is shown, it is not given here.

What was measured:
[1] = Experimental solubility and minimum gelation conditions; format: physicochemical; conditions: for solubility in sodium phosphate buffer (NaPB): 75 mM sodium phosphate buffer pH 7.4 (also ORAC buffer), 1–15 mM; for peptide concentration at which gelation occurs in NaPB: 75 mM sodium phosphate buffer pH 7.4, room temperature, no DMSO
[2] = target: T1, angiotensin-I converting enzyme (ACE I) (Oryctolagus cuniculus, UniProt P12822); test: ACE I inhibitory activity (cleavage of FA-PGG); format: biochemical; conditions: for IC50: linear regression over 7, 8.5 and 10 mg/mL, substrate FA-PGG, three independent replicates, read-out: ACE I inhibition IC50 (converted)
T1 construct: purchased Sigma Aldrich A6778
T1 sequence (P12822 34-1310): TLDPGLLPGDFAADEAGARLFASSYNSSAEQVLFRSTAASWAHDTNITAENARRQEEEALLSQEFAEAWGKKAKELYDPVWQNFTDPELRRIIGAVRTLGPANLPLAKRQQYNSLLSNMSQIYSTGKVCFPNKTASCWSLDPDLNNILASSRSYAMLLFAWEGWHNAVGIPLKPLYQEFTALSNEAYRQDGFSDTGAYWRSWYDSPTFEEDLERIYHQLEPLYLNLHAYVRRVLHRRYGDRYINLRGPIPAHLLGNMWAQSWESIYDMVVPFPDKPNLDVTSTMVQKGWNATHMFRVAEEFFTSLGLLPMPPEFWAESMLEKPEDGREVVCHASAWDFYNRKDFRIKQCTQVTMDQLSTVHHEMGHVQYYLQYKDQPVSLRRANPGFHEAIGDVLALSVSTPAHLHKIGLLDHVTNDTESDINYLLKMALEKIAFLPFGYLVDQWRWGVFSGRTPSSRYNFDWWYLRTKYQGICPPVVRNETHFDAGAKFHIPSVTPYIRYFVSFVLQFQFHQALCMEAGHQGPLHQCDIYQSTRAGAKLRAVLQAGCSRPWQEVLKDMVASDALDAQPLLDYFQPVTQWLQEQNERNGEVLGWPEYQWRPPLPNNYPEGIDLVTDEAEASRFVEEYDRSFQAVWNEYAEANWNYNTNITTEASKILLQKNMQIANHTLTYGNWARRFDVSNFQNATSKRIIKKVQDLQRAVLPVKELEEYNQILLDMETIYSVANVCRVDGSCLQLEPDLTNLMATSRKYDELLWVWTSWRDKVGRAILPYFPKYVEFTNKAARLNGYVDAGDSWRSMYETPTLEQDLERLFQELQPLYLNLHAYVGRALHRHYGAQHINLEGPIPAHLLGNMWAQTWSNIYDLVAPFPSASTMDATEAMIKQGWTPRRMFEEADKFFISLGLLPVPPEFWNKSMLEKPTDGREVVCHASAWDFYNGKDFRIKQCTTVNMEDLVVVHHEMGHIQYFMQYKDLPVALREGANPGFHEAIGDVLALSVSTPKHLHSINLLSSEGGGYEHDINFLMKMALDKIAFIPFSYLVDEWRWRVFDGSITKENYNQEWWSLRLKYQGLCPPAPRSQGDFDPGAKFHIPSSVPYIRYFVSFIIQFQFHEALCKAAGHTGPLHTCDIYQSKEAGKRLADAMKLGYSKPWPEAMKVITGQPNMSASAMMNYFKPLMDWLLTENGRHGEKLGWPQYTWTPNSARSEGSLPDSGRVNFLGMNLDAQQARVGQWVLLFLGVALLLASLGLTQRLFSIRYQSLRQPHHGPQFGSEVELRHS
Method: For the angiotensin-I converting enzyme (ACE I) inhibitory activity measurements, the peptides were dissolved as described for the ORAC assay. As the highest possible concentration of the peptides without gel formation was 10 mg/mL and no activity could be detected at 5 mg/mL, the peptides were assessed at 7, 8.5, and 10 mg/mL in three independent replicates. The substrate N-[3-(2-furyl) acryloyl]-L-phenylalanyl-glycylglycine (FA-PGG; Sigma Aldrich F7131) was prepared at 0.88 mM in 50 mM Tris-Cl, pH 7.5, and 0.3 M NaCl. In 96-well plates, 10 µL of the samples and their respective buffers as controls were combined with 10 µL of ACE I (ACE; Sigma Aldrich A6778) at 0.25 U/mL and 150 µL of a preheated substrate solution. The absorbance was continuously measured every minute at 340 nm for 30 min in a Synergy HTX S1LFA plate reader. Linear regression curves were obtained for the decrease in absorbance over time for every sample and the % ACE I inhibition was calculated as:% ACE I inhibition = (1 − (ΔA340 nm protein solution/ΔA340 nm negative control)) × 100
Captopril was used to verify the functionality of the assay, and a logarithmic inhibition curve was obtained using 340, 34, 17, and 8.5 µM captopril. IC 50 values were calculated for the peptides for which a positive linear regression line could be obtained based on their ACE inhibition (%) at the assessed concentrations.

[3] = accompanying manufacturer information; ref ProteoGenix SAS; cited from earlier work
Method: The peptide synthesis was carried out using ProteoGenix SAS, (Schiltigheim France), followed by acetate N-terminal blocking and chromatography purification (LC-MS purity chromatograms per peptide are included in the Supplementary Materials). Thus, 1 g of lyophilized powder at 80% or a higher purity (technical grade) in sterile plastic bottles was provided by ProteoGenix for further research. The peptides were stored at −20 °C, opened only prior to the dissolution preparation and ...

Ac-SRPSDPASAVAGEDYTGISRN [Peptide P3]
solubility in Ca2+-containing buffer ([1]; 1 mM peptide, artificial sea water pH 7.7, no DMSO, room temperature, visual): fully soluble
solubility in sodium phosphate buffer (NaPB) ([1]; room temperature, visual): dissolved after gentle agitation without any need for DMSO addition
peptide concentration at which gelation occurs in NaPB [1]: above 15 mM
peptide concentration needed for gelation (minimal gelation conditions) ([1]; Ca2+-containing buffer (artificial sea water, 11 mM Ca2+, pH 7.7), room temperature 21 °C, mix at 1:1:1:1 ratio): 15 mM

Ac-QNGEYGCVADTPNLLYAFKILDYRQ [Peptide P4]
IC50 [2]: 8.96 mM
solubility in sodium phosphate buffer (NaPB) ([1]; room temperature, visual): dissolved after gentle agitation without any need for DMSO addition
peptide concentration at which gelation occurs in NaPB [1]: above 15 mM
water solubility [3]: poor

Ac-EMLWLSDGSMGFAEDTDAAFLPGDTIFGRI [Peptide P1]
solubility in sodium phosphate buffer (NaPB) ([1]; room temperature, visual): dissolved after gentle agitation without any need for DMSO addition
peptide concentration at which gelation occurs in NaPB [1]: above 15 mM
water solubility [3]: poor

Ac-RAGQPITAFLVRD [Peptide P2]
inhibition at 10000 µg/mL ([2]; at 10 mg/mL, mean of three replicates): 75%
IC50 [2]: 4.78 mM
solubility in sodium phosphate buffer (NaPB) ([1]; room temperature, visual): insoluble; also recorded: insolubility
individual peptide solubility ([1]; both buffers: Ca2+-containing artificial sea water pH 7.7 and 75 mM sodium phosphate buffer pH 7.4, 21 °C, visual, three repetitions): low
